16 molecules from article PMC11228576 (RSC Advances, 2024) can be followed below.

Where two headings read alike, the source gives them in different places.

The target in assay [1] is T1, bovine erythrocyte CA-II (Bos taurus, UniProt P00921). Kind of assay: CA-II in vitro inhibition assay. Format: biochemical. The conditions noted are these: for Percent inhibition (0.5 mM): compound at 0.5 mM; for inhibition at 500 µM: read-out: Percent inhibition (0.5 mM).
Assay [2] addresses T1, bovine erythrocyte CA-II. Kind of assay: Enzyme kinetics study of CA-II inhibition. Format: biochemical.
Setting [3] is: read-out: IC50 ± μM (SEM), bovine CA-II, triplicate, SEM.

T1 sequence (P00921 whole entry): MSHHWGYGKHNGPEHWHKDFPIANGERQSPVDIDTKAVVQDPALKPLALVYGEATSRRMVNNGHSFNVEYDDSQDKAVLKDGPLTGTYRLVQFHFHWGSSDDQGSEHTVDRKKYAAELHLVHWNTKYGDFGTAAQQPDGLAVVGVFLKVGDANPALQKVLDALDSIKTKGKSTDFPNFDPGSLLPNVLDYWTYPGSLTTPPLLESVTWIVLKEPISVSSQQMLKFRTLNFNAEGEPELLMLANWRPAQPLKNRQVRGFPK

As for `Cc1cccc(C)c1-n1c(-c2ccc([N+](=O)[O-])cc2)cs/c1=N/N=C/c1ccc(N2CCOCC2)cc1` [Compound 26, 4-{4-[(E)-{[(E)-3-(2,6-dimethylphenyl)-4-(4-nitrophenyl)thiazol-2(3H)ylidene] hydrazone}methyl]phenyl}morpholine], the “Percent inhibition (0.5 mM)” value at bovine erythrocyte CA-II [1] (bovine CA-II) came to 89.76%. For the same molecule, the half-maximal inhibitory concentration (IC50) at bovine erythrocyte CA-II [1] (setting [3]) was 17.2 ± 0.36 µM.
On to `C(=N\N=c1\scc(-c2ccccc2)n1CCN1CCOCC1)/c1ccc(N2CCOCC2)cc1` [Compound 7, 4-{2-[(E)-2-{[(E)-4-morpholinobenzylidene]hydrazineylidene}-4-phenylthiazol-3(2H)-yl]ethyl}morpholine], for which, at bovine erythrocyte CA-II [1], half-maximal inhibition (IC50) was put at 37.2 ± 1.37 µM and the inhibition at 500 µM stood at 80.9%.
With `COc1ccc(-n2c(-c3ccc(Cl)cc3)cs/c2=N/N=C/c2ccc(N3CCOCC3)cc2)cc1` [Compound 19, 4-{4-[(E)-{[(E)-4-(4-chlorophenyl)-3-(4-methoxyphenyl)thiazol-2(3H)-ylidene] hydrazone}methyl]phenyl}morpholine], the “Percent inhibition (0.5 mM)” value at bovine erythrocyte CA-II [1] (bovine CA-II) amounted to 70.35%. Also, the half-maximal inhibitory concentration (IC50) on bovine erythrocyte CA-II [1] (setting [3]) amounted to 48.2 ± 1.19 µM.
In the case of `COc1ccc(-n2c(-c3ccc([N+](=O)[O-])cc3)cs/c2=N/N=C/c2ccc(N3CCOCC3)cc2)cc1` [Compound 25, 4-{4-[(E)-{[(E)-3-(4-methoxyphenyl)-4-(4-nitrophenyl)thiazol-2(3H)-ylidene]hydrazone}methyl]phenyl}morpholine], the “Percent inhibition (0.5 mM)” value at bovine erythrocyte CA-II [1] (bovine CA-II) amounted to 88.69%. Besides, on bovine erythrocyte CA-II [1] (setting [3]), the IC50 amounted to 16.5 ± 0.4 µM.
For `Clc1ccc(-c2cs/c(=N/N=C/c3ccc(N4CCOCC4)cc3)n2CCN2CCOCC2)cc1` [Compound 17, 4-{2-[(E)-2-{[(E)-4-morpholinobenzylidene]hydrazineylidene}-4-(4-chlorophenyl)thiazol-3(2H)-yl]ethyl}morpholine], at bovine erythrocyte CA-II [1], the half-inhibitory concentration (IC50) came to 51.2 ± 1.26 µM and the inhibition at 500 µM was 71.2%.
In the case of `C(=N\N=c1\scc(-c2ccccc2)n1-c1cccc2ccccc12)/c1ccc(N2CCOCC2)cc1` [Compound 10, 4-{4-[(E)-{[(E)-3-(naphthalen-1-yl)-4-phenylthiazol-2(3H)-ylidene] hydrazone}methyl]phenyl} morpholine], on bovine erythrocyte CA-II [1] (bovine CA-II), the “Percent inhibition (0.5 mM)” value stood at 80.20%. At bovine erythrocyte CA-II [1] (setting [3]), the IC50 was 39.7 ± 1.41 µM.
For `Cc1cccc(C)c1-n1c(-c2ccc(Cl)cc2)cs/c1=N/N=C/c1ccc(N2CCOCC2)cc1` [Compound 21, 4-{4-[(E)-{[(E)-4-(4-chlorophenyl)-3-(2,6-dimethylphenyl)thiazol-2(3H)-ylidene]hydrazone}methyl]phenyl}morpholine] the same measures were 81.46% and 38.6 ± 0.48 µM.
As to `C(=N\N=c1\scc(-c2ccccc2)n1Cc1ccccc1)/c1ccc(N2CCOCC2)cc1` [Compound 5, 4-{4-[(E)-{[(E)-3-benzyl-4-phenylthiazol-2(3H)-ylidene] hydrazone}methyl]phenyl} morpholine], the “Percent inhibition (0.5 mM)” value on bovine erythrocyte CA-II [1] (bovine CA-II) amounted to 86.61%. Moreover, the half-inhibitory concentration (IC50) on bovine erythrocyte CA-II [1] (setting [3]) worked out at 26.5 ± 0.68 µM.
For the molecule `O=[N+]([O-])c1ccc(-c2cs/c(=N/N=C/c3ccc(N4CCOCC4)cc3)n2CCN2CCOCC2)cc1` [Compound 24, 4-{2-[(E)-2-{[(E)-4-morpholinobenzylidene]hydrazineylidene}-4-(4-nitrophenyl)thiazol-3(2H)-yl]ethyl}morpholine], at bovine erythrocyte CA-II [1], the 50% inhibitory concentration (IC50) is 14.7 ± 0.29 µM and the inhibition at 500 µM was 90.2%. This molecule also returned an inhibitory constant (Ki) on bovine erythrocyte CA-II [2] of 9.64 ± 0.007 µM. For the same molecule, the type of inhibition result at bovine erythrocyte CA-II [2] (bovine CA-II, Lineweaver–Burk plot) is on record as “competitive type of inhibition”.
With `Clc1ccc(-c2cs/c(=N/N=C/c3ccc(N4CCOCC4)cc3)n2CCc2ccccc2)cc1` [Compound 15, 4-{4-[(E)-{[(E)-4-(4-chlorophenyl)-3-phenethylthiazol-2(3H)-ylidene]hydrazone}methyl]phenyl}morpholine], on bovine erythrocyte CA-II [1] (bovine CA-II), the “Percent inhibition (0.5 mM)” value was found to be 75.36%. For the same molecule, the IC50 on bovine erythrocyte CA-II [1] (setting [3]) amounted to 49.3 ± 1.35 µM.
For `O=[N+]([O-])c1cccc(-n2c(-c3ccccc3)cs/c2=N/N=C/c2ccc(N3CCOCC3)cc2)c1` [Compound 8, 4-{4-[(E)-{[(E)-3-(3-nitrophenyl)-4-phenylthiazol-2(3H)-ylidene] hydrazone}methyl]phenyl} morpholine] the same measures were 83.11% and 27.4 ± 0.47 µM.
Regarding `Clc1ccc(-c2cs/c(=N/N=C/c3ccc(N4CCOCC4)cc3)n2Cc2ccccc2)cc1` [Compound 14, 4-{4-[(E)-{[(E)-3-benzyl-4-(4-chlorophenyl)thiazol-2(3H)-ylidene]hydrazone}methyl]phenyl}morpholine], the “Percent inhibition (0.5 mM)” value on bovine erythrocyte CA-II [1] (bovine CA-II) amounted to 80.69%. Besides, the IC50 at bovine erythrocyte CA-II [1] (setting [3]) worked out at 35.4 ± 0.64 µM.
For `Cc1ccc(Cn2c(-c3ccc(Cl)cc3)cs/c2=N/N=C/c2ccc(N3CCOCC3)cc2)cc1` [Compound 16, 4-{4-[(E)-{[(E)-4-(4-chlorophenyl)-3-(4-methylbenzyl)thiazol-2(3H)-ylidene]hydrazone}methyl]phenyl}morpholine] the same measures were 70.20% and 56.3 ± 1.4 µM.
For `C(=N\N=c1\scc(-c2ccccc2)n1CCc1ccccc1)/c1ccc(N2CCOCC2)cc1` [Compound 6, 4-{4-[(E)-{[(E)-3-phenethyl-4-phenylthiazol-2(3H)-ylidene]hydrazone}methyl]phenyl} morpholine] the same measures were 84.29% and 34.6 ± 1.1 µM.
For `Brc1ccc(-c2cs/c(=N/N=C/c3ccc(N4CCOCC4)cc3)n2-c2ccccc2)cc1` [Compound 27, 4-{4-[(E)-{[(E)-4-(4-bromophenyl)-3-phenylthiazol-2(3H)-ylidene]hydrazone}methyl]phenyl}morpholine] the same measures were 84.95% and 23.8 ± 0.44 µM.
As to `C(=N\N=c1\scc(-c2ccccc2)n1C1CCCCC1)/c1ccc(N2CCOCC2)cc1` [Compound 3, 4-{4-[(E)-{[(E)-3-cyclohexyl-4-phenylthiazol-2(3H)-ylidene]hydrazone}methyl]phenyl} morpholine], the “Percent inhibition (0.5 mM)” value on bovine erythrocyte CA-II [1] (bovine CA-II) came to 86.44%. In addition, the concentration for half-maximal inhibition (IC50) at bovine erythrocyte CA-II [1] (setting [3]) was determined as 30.2 ± 0.59 µM.
